# Test results reported in patent US6335038B1, “Composition for the prevention and/or treatment of osteoporosis and alterations due to menopause syndrome” (Sigma-Tau Healthscience S.p.A., priority 1998, dated 2002).
# Key:
# [1] = tested on: MC3T3 osteoblast-like cells; test: Osteoblastic cell growth tests; assay type: cell-based, mouse; conditions: 72-hour incubation; 0.05 mM carnitine, 0.005 mM isoflavones or genistein; versus controls
# Description: In view of the important role played by osteoblasts in regulating growth and in bone remodelling, a series of tests was conducted to evaluate whether the presence of carnitines or isoflavonoids and genistein could influence the growth of osteoblastic cells in vitro.
# [2] = Toxicological tests, single-dose administration, rats; conditions: single dose: carnitine mixture 600 mg/kg, propionyl L-carnitine 600 mg/kg, soy extract (5% isoflavones) 5 g/kg, genistein 15 mg/kg
# [3] = tested on: prostacyclin synthesis in rat peritoneal macrophages; test: Prostacyclin synthesis tests (PGI2 release by peritoneal macrophages from treated rats); assay type: in vivo; conditions: for effect on PGI2 synthesis in macrophages (in words): rats treated seven days, versus controls; for Macrophage PGI2 release values compared with controls: rats treated with diet for seven days (carnitine mixture 400 mg/kg, propionyl L-carnitine 400 mg/kg, soy extract 8 g/kg, genistein 40 mg/kg), carrageenin i.p. day 1, controls 0.25 ± 0.03
# Description: The method used in these tests was the one described by G. R. Elliot in Brit. J. Nutrition, 64, 497, 1990, measuring the release of prostaglandins by peritoneal macrophages isolated from a batch of rats that were administered either the carnitine mixture, or the soy extract, or propionyl L-carnitine, or genistein, or various combinations of these products with their diet for seven days consecutively. The doses given were 400 mg/kg of carnitine mixture, or 400 mg/kg of propionyl L-carnitine, or 8 g/kg of soy extract, or 40 mg/kg of genistein, or the same doses of the various products combined. On day 1 of treatment, all the animals were treated intraperitoneally with 2 cm^3 of solution containing 2 mg of carrageenin. After the last day of treatment, peritoneal macrophages were isolated from the controls and treated rats so as to obtain a […] cell suspension.
# One cm^3 of the macrophage preparation thus prepared was incubated for a period of two hours in order to evaluate the basal release or release after 30 minutes after being placed in contact with an ionophore such as […]. The cells were centrifuged and the supernatant analysed for its PGI2 content according to the radioimmunological assay method described by Zijstra et al. (Zijstra, F. J., Vincent, J. E., J. Chromatography, 311, 39, 1984).
# serum osteocalcin = test: Evaluation of changes in serum osteocalcin concentration; assay type: in vivo, mice; conditions: for Osteocalcin, serum concentration: mice aged at least 7 months, daily with diet; for effect on serum osteocalcin concentrations (in words): mice, versus control animals
# Description: There is a close correlation between changes in plasma levels of osteocalcin and bone tissue osteoblast activity, and a reduction in osteocalcin plasma levels is an indicator of […] osteoblast activity which appears to underlie osteoporosis in elderly subjects or in the postmenopausal period in women. These tests were performed on a batch of mice aged at least 7 months, divided into various groups of 10 mice each.
# The treatment was administered daily for thirty days or sixty days consecutively.
# [4] = Toxicological tests, single-dose administration, mice; conditions: single dose: carnitine mixture 600 mg/kg, propionyl L-carnitine 600 mg/kg, soy extract (5% isoflavones) 5 g/kg, genistein 15 mg/kg
# [5] = duration of treatment 30 days, controls 120.4 ± 8.6
# [6] = duration of treatment 60 days, controls 90.5 ± 7.9
SMILES,effect on growth of osteoblastic cells (in words) [1],mortality or evident signs of toxicity after single dose [2],effect on PGI2 synthesis in macrophages (in words) [3],Macrophage PGI2 release values compared with controls [3],"Osteocalcin, serum concentration (serum osteocalcin; [5])","Osteocalcin, serum concentration (serum osteocalcin; [6])",effect on serum osteocalcin concentrations (in words) (serum osteocalcin),mortality or evident signs of toxicity after single dose [4]
"CCC(=O)O[C@H](CC(=O)[O-])C[N+](C)(C)C [Propionyl L-carnitine, propionyl L-carnitine]",modest effect on the growth of cells,without any mortality or evident signs of toxicity,increase in PGI2 synthesis,3.0 ± 0.22 ng/2 × 10^−6 cells,130.7 ± 10.1 ng/mL,98.5 ± 8.1 ng/mL,capable of increasing the serum osteocalcin concentrations,without any mortality or evident signs of toxicity
"O=c1c(-c2ccc(O)cc2)coc2cc(O)cc(O)c12 [Genistein, 4′,5,7-trihydroxyisoflavone]",neither the isoflavones nor genistein appear to influence the normal growth rate of the cells,without any mortality or evident signs of toxicity,only modest,0.39 ± 0.27 ng/2 × 10^−6 cells,135.9 ± 10.2 ng/mL,100.1 ± 10.2 ng/mL,capable of increasing the serum osteocalcin concentrations,without any mortality or evident signs of toxicity
